According to the supplement of paper PMC10307832:

Assays:
Assay in all cases: relative viability (nuclei count vs DMSO), 5 days (fraction); higher = more cells survive
[1] = compound: CC1=NN=C(O1)C2=NN=C(C=C2)N3CCC(CC3)OC4=C(C=CC(=C4)F)Cl + CC1(C)CCC(c2ccc(Cl)cc2)=C(CN2CCN(c3ccc(C(=O)NS(=O)(=O)c4ccc(N[C@H](CCN5CCOCC5)CSc5ccccc5)c(S(=O)(=O)C(F)(F)F)c4)cc3)CC2)C1 [Navitoclax] (partner 0.5 µM)
Procedure, shortened: (§1)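 Relative viability equals treated-well nuclei counts divided by vehicle-well nuclei counts. Counts came from 4× images of lung cancer cell lines grown in 1536-well plates for 5 days after pin-tool dosing on the day after seeding. Dosing used one drug alone or a fixed anchor-drug dose plus five library-drug doses (not always all listed) in √10 steps, and values are medians of duplicate plates.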

Tosedostat + Decitabine = compound: CC(C)C[C@@H](C(=O)N[C@H](C(=O)OC1CCCC1)c1ccccc1)[C@H](O)C(=O)NO [Tosedostat] + Nc1ncn([C@H]2C[C@H](O)[C@@H](CO)O2)c(=O)n1 [Decitabine] (partner 2 µM)
Procedure, shortened: as §1

[2] = compound: CC1=NN=C(O1)C2=NN=C(C=C2)N3CCC(CC3)OC4=C(C=CC(=C4)F)Cl + Nc1ncn([C@H]2C[C@H](O)[C@@H](CO)O2)c(=O)n1 [Decitabine] (partner 2 µM)
Procedure, shortened: as §1

Tosedostat + Foretinib = compound: CC(C)C[C@@H](C(=O)N[C@H](C(=O)OC1CCCC1)c1ccccc1)[C@H](O)C(=O)NO [Tosedostat] + COc1cc2c(Oc3ccc(NC(=O)C4(C(=O)Nc5ccc(F)cc5)CC4)cc3F)ccnc2cc1OCCCN1CCOCC1 [Foretinib] (partner 0.25 µM)
Procedure, shortened: as §1

Cell Line	relative viability ([1]; first compound 0.253 µM)	relative viability ([1]; first compound 0.8 µM)	relative viability ([1]; first compound 2.53 µM)	relative viability ([1]; first compound 8 µM)	relative viability (Tosedostat + Decitabine; first compound 0.02 µM)	relative viability (Tosedostat + Decitabine; first compound 0.06325 µM)	relative viability (Tosedostat + Decitabine; first compound 0.2 µM)	relative viability (Tosedostat + Decitabine; first compound 0.6325 µM)	relative viability (Tosedostat + Decitabine; first compound 2 µM)	relative viability ([2]; first compound 0.253 µM)	relative viability ([2]; first compound 0.8 µM)	relative viability ([2]; first compound 2.53 µM)	relative viability ([2]; first compound 8 µM)	relative viability (Tosedostat + Foretinib; first compound 0.02 µM)	relative viability (Tosedostat + Foretinib; first compound 0.06325 µM)	relative viability (Tosedostat + Foretinib; first compound 0.2 µM)	relative viability (Tosedostat + Foretinib; first compound 0.6325 µM)	relative viability (Tosedostat + Foretinib; first compound 2 µM)
HCC-827	0.397	0.291	0.399	0.328	0.317	0.331	0.289	0.26	0.314	0.342	0.298	0.183	0.282	0.999	1.09	1.06	0.946	0.895
HOP-62	0.834	0.542	0.816	0.863	0.227	0.203	0.258	0.159	0.186	0.189	0.184	0.19	0.18	1.27	1.09	1.09	1.02	1
IA-LM	0.131	0.137	0.127	0.12	–	–	–	–	–	–	–	–	–	1.18	1.19	1.19	1.12	0.903
LC-2-ad	0.318	0.242	0.307	0.218	0.777	0.776	0.83	0.746	0.811	0.335	0.314	0.381	0.348	0.987	0.939	0.941	0.842	0.806
LCLC-97TM1	0.623	–	0.67	0.447	0.186	0.234	0.212	0.207	0.184	0.205	–	0.186	0.18	0.878	0.926	0.833	0.771	0.773
LCLC-103H	–	–	–	–	0.792	0.745	0.728	0.763	0.76	0.491	0.694	0.552	0.435	0.787	0.797	0.878	0.797	0.777
LK-2	0.873	0.928	0.808	0.915	0.305	0.306	0.237	0.262	0.272	0.401	0.279	0.325	0.315	1.1	0.926	1.02	1.11	1.68
LOU-NH91	–	0.577	0.697	0.705	0.82	0.797	0.806	0.726	0.74	–	0.773	0.773	0.759	0.981	0.955	0.882	0.887	0.871
LU99A	0.836	0.723	0.858	0.582	0.906	0.769	0.909	0.744	0.693	0.891	0.913	0.812	0.834	0.894	0.729	0.758	0.708	0.674
LXF-289	0.714	0.7	0.673	0.618	0.409	0.392	0.365	0.387	0.328	0.317	0.323	0.343	0.3	0.981	1	1.04	0.943	0.962
